Numbers after ± are expanded uncertainties.
Details: 101.33 kPa, Liquid; for viscosity: Capillary tube (Ostwald / Ubbelohde) method; for mass density: Vibrating tube method

viscosity (283.15 K) [mPa·s]	mass density (283.15 K) [kg/m3]	viscosity (293.15 K) [mPa·s]	mass density (293.15 K) [kg/m3]	viscosity (298.15 K) [mPa·s]	mass density (298.15 K) [kg/m3]	viscosity (303.15 K) [mPa·s]	mass density (303.15 K) [kg/m3]	viscosity (313.15 K) [mPa·s]	mass density (313.15 K) [kg/m3]	Compound
0.493 ± 0.004	877.72 ± 0.12	0.438 ± 0.003	866.71 ± 0.12	0.414 ± 0.003	861.2 ± 0.12	0.392 ± 0.003	855.7 ± 0.13	0.353 ± 0.003	844.69 ± 0.13	COCCOC [1,2-dimethoxyethane]
1.459 ± 0.009	797.97 ± 0.12	1.209 ± 0.007	789.43 ± 0.12	1.098 ± 0.007	785.16 ± 0.12	0.998 ± 0.006	780.88 ± 0.12	0.831 ± 0.005	772.34 ± 0.13	CCO [ethanol]
13.52 ± 0.07	832.11 ± 0.13	9.167 ± 0.05	825.13 ± 0.13	7.618 ± 0.042	821.63 ± 0.14	6.395 ± 0.036	818.14 ± 0.14	4.628 ± 0.028	811.15 ± 0.14	CCCCCCCCO [octan-1-ol]
5.463 ± 0.04	821.95 ± 0.24	4.037 ± 0.03	814.6 ± 0.24	3.49 ± 0.026	810.93 ± 0.24	3.032 ± 0.023	807.25 ± 0.24	2.319 ± 0.018	799.9 ± 0.24	CCCCCO [pentan-1-ol]

— the NIST ThermoML archive (doi:10.1021/je301095j)
